Measurements from PMC6648297 (ACS Omega, 2019).

Target: Pin1 (Homo sapiens, UniProt Q13526)
Assay: SensoLyte Green fluorimetric PPIase activity assay, dose-response
Format: biochemical

Pin1, sequence (Q13526 whole entry): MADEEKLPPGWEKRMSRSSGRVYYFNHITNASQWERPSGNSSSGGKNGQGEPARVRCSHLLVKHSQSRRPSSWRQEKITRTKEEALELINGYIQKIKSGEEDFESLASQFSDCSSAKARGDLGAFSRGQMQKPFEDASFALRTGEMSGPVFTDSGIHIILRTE

EC50: ~10 µM
Compound: CCOC(=O)CN1C(=O)c2ccc3c4c(ccc(c24)C1=O)C(=O)N(CC(=O)OCC)C3=O [PiB]
